Assay results from ChEMBL document CHEMBL5370649, “Novel Coumarin Derivatives Inhibit the Quorum Sensing System and Iron Homeostasis as Antibacterial Synergists against Pseudomonas aeruginosa” (J Med Chem, 2023).
Active and inactive are the calls of the source. The calls are words filed in the database; no cut-off is given here.

Columns and labels:
Pseudomonas aeruginosa [1] = assay: Antibacterial activity against Pseudomonas aeruginosa PAO1 in ABTGC medium assessed as bacterial growth inhibition incubated for 16 hrs; type: functional
Pseudomonas aeruginosa [2] = assay: Antibiofilm activity against Pseudomonas aeruginosa PAO1 in ABTGC medium assessed as inhibition of biofilm formation incubated for 24 hrs by crystal violet staining based absorbance assay; type: functional, organism-based; settings: PAO1, 24 h
Pseudomonas aeruginosa [3] = assay: In vivo antibacterial activity against Pseudomonas aeruginosa PAO1 infected in Balb/c mouse wound infection model assessed as healing degree of wound at 0.005 mg/ml,TOP QD for 3 days and measured after 9 days; type: functional, organism-based; settings: time 3.0 day
Pseudomonas aeruginosa [4] = assay: Inhibition of iron homeostasis in Pseudomonas aeruginosa PAO1 in ABTGC medium assessed as decrease in iron level at 1.25 to 20 uM in presence of FeCl3 by fluorescence based microplate reader analysis (Rvb= 9.6+/-2.00 microM); type: functional; settings: dose 1.25-20 µM
[5] = Metal chelating activity assessed as Fe3+-compound complex formation assessed as pFe(III) value by fluorescence method
[6] = Toxicity in Balb/c mouse wound infection model infected with Pseudomonas aeruginosa PAO1 assessed as morphological changes in lung at 0.0025 mg/ml,TOP for 3 days in presence of N-hydroxy-7-((6-methyl-2-oxo-2H-chromen-4-yl)oxy)heptanamide by H and E staining based analysis; type: tissue-based; settings: in vivo, topical_or_ocular, 72 h, time 3 day
[7] = Toxicity in Balb/c mouse wound infection model infected with Pseudomonas aeruginosa PAO1 assessed as morphological changes in heart at 0.0025 mg/ml,TOP for 3 days in presence of N-hydroxy-7-((6-methyl-2-oxo-2H-chromen-4-yl)oxy)heptanamide by H and E staining based analysis; type: tissue-based; settings: in vivo, topical_or_ocular, 72 h, time 3 day
[8] = Toxicity in Balb/c mouse wound infection model infected with Pseudomonas aeruginosa PAO1 assessed as body weight change at 0.0025 mg/ml,TOP for 3 days in presence of N-hydroxy-7-((6-methyl-2-oxo-2H-chromen-4-yl)oxy)heptanamide; settings: in vivo, topical_or_ocular, 72 h, time 3 day
[9] = Toxicity in Balb/c mouse wound infection model infected with Pseudomonas aeruginosa PAO1 assessed as morphological changes in liver at 0.0025 to 0.5 mg/ml,TOP for 3 days by H and E staining based analysis; type: tissue-based; settings: in vivo, topical_or_ocular, 72 h, dose 0.0025-0.5 mg/ml, time 3 day
[10] = Toxicity in Balb/c mouse wound infection model infected with Pseudomonas aeruginosa PAO1 assessed as body weight change at 0.0025 to 0.5 mg/ml,TOP for 3 days; settings: in vivo, topical_or_ocular, 72 h, dose 0.0025-0.5 mg/ml, time 3 day
[11] = Toxicity in Balb/c mouse wound infection model infected with Pseudomonas aeruginosa PAO1 assessed as morphological changes in spleen at 0.0025 to 0.5 mg/ml,TOP for 3 days by H and E staining based analysis; type: tissue-based; settings: in vivo, topical_or_ocular, 72 h, dose 0.0025-0.5 mg/ml, time 3 day
[12] = Toxicity in Balb/c mouse wound infection model infected with Pseudomonas aeruginosa PAO1 assessed as morphological changes in lung at 0.0025 to 0.5 mg/ml,TOP for 3 days by H and E staining based analysis; type: tissue-based; settings: in vivo, topical_or_ocular, 72 h, dose 0.0025-0.5 mg/ml, time 3 day
[13] = Toxicity in Balb/c mouse wound infection model infected with Pseudomonas aeruginosa PAO1 assessed as morphological changes in liver at 0.0025 mg/ml,TOP for 3 days in presence of N-hydroxy-7-((6-methyl-2-oxo-2H-chromen-4-yl)oxy)heptanamide by H and E staining based analysis; type: tissue-based; settings: in vivo, topical_or_ocular, 72 h, time 3 day
[14] = Toxicity in Balb/c mouse wound infection model infected with Pseudomonas aeruginosa PAO1 assessed as morphological changes in heart at 0.0025 to 0.5 mg/ml,TOP for 3 days by H and E staining based analysis; type: tissue-based; settings: in vivo, topical_or_ocular, 72 h, dose 0.0025-0.5 mg/ml, time 3 day
[15] = Toxicity in Balb/c mouse wound infection model infected with Pseudomonas aeruginosa PAO1 assessed as morphological changes in spleen at 0.0025 mg/ml,TOP for 3 days in presence of N-hydroxy-7-((6-methyl-2-oxo-2H-chromen-4-yl)oxy)heptanamide by H and E staining based analysis; type: tissue-based; settings: in vivo, topical_or_ocular, 72 h, time 3 day
Pseudomonas aeruginosa [16] = assay: In vivo antibacterial activity against Pseudomonas aeruginosa PAO1 infected in Balb/c mouse wound infection model assessed as healing degree of wound at 0.5 mg/ml,TOP QD for 3 days and measured after 9 days; type: functional, organism-based; settings: time 3.0 day
[17] = Toxicity in Balb/c mouse wound infection model infected with Pseudomonas aeruginosa PAO1 assessed as morphological changes in kidney at 0.0025 to 0.5 mg/ml,TOP for 3 days by H and E staining based analysis; type: tissue-based; settings: in vivo, topical_or_ocular, 72 h, dose 0.0025-0.5 mg/ml, time 3 day
[18] = Toxicity in Balb/c mouse wound infection model infected with Pseudomonas aeruginosa PAO1 assessed as morphological changes in kidney at 0.0025 mg/ml,TOP for 3 days in presence of N-hydroxy-7-((6-methyl-2-oxo-2H-chromen-4-yl)oxy)heptanamide by H and E staining based analysis; type: tissue-based; settings: in vivo, topical_or_ocular, 72 h, time 3 day
Pseudomonas aeruginosa [19] = assay: In vivo antibacterial activity against Pseudomonas aeruginosa PAO1 infected in Balb/c mouse wound infection model assessed as reduction in bacterial survival rate at wounded area at 0.5 mg/ml,TOP QD for 3 days by CFU assay; type: functional; settings: time 3 day

| SMILES | MIC (Pseudomonas aeruginosa [1]) | IC50 (Pseudomonas aeruginosa [2]) | other results |
| --- | --- | --- | --- |
| O=C(CCCCCCOc1cc(=O)oc2ccc(Cl)cc12)NO | > 256 µM | > 100 µM | – |
| Cc1ccc2oc(=O)cc(OCCCCCCCCC(=O)NO)c2c1 | > 256 µM | 20.4 µM | – |
| CCCCCCOc1cc(=O)oc2ccc(C)cc12 | > 256 µM | > 100 µM | – |
| O=C(CCCCOc1cc(=O)oc2ccccc12)NO | > 256 µM | 42.3 µM | – |
| Cc1ccc2oc(=O)cc(OCCCCC(=O)NO)c2c1 | > 256 µM | 12.8 µM | – |
| O=C(CCCCCCOc1cc(=O)oc2cc(Cl)ccc12)NO | > 256 µM | > 100 µM | – |
| COc1ccc2oc(=O)cc(OCCCCC(=O)NO)c2c1 | > 256 µM | > 100 µM | – |
| Cc1ccc2oc(=O)cc(OCc3ccc(C(=O)NO)cc3)c2c1 | > 256 µM | > 100 µM | – |
| O=C(CCCCOc1cc(=O)oc2ccc(Br)cc12)NO | > 256 µM | 29.7 µM | – |
| O=C(O)c1cn(C2CC2)c2cc(N3CCNCC3)c(F)cc2c1=O | – | – | Activity (Pseudomonas aeruginosa [3]): Active |
| COc1ccc2oc(=O)cc(OCCCC(=O)NO)c2c1 | > 256 µM | > 100 µM | – |
| Cc1ccc2c(OCCCC(=O)NO)cc(=O)oc2c1 | > 256 µM | > 100 µM | – |
| O=C(CCCOc1cc(=O)oc2ccccc12)NO | > 256 µM | 88.4 µM | – |
| O=C(CCCOc1cc(=O)oc2ccc(Br)cc12)NO | > 256 µM | 70 µM | – |
| Cc1c(O)c(=O)ccn1C [DEFERIPRONE] | – | – | Activity (Pseudomonas aeruginosa [4]): 7.74 µM; pFe(III) [5]: 20.1 |
| Cc1ccc2oc(=O)cc(NCCCC(=O)NO)c2c1 | > 256 µM | > 100 µM | – |
| COc1ccc2oc(=O)cc(OCCCCCC(=O)NO)c2c1 | > 256 µM | > 100 µM | – |
| Cc1ccc2oc(=O)cc(NCCCCC(=O)NO)c2c1 | > 256 µM | > 100 µM | – |
| Cc1ccc2oc(=O)cc(OCCCC(=O)NO)c2c1 | > 256 µM | 77.4 µM | – |
| COc1ccc2oc(=O)cc(OCCCCCCC(=O)NO)c2c1 | > 256 µM | > 100 µM | – |
| COc1ccc2c(OCCCCC(=O)NO)cc(=O)oc2c1 | > 256 µM | > 100 µM | – |
| Cc1ccc2oc(=O)cc(NCCCCCC(=O)NO)c2c1 | > 256 µM | > 100 µM | – |
| Cc1ccc2oc(=O)cc(OCCCCCCCC(=O)NO)c2c1 | > 256 µM | > 100 µM | – |
| O=C(CCCCOc1cc(=O)oc2ccc(Cl)cc12)NO | > 256 µM | > 100 µM | – |
| O=C(CCCOc1cc(=O)oc2ccc(Cl)cc12)NO | > 256 µM | > 100 µM | – |
| Cc1cccc(OCCCCCCC(=O)NO)c1 | > 256 µM | > 100 µM | – |
| O=C(CCCCCCOc1cc(=O)oc2ccc(Br)cc12)NO | > 256 µM | 44.4 µM | – |

| SMILES | MIC (Pseudomonas aeruginosa [1]) | IC50 (Pseudomonas aeruginosa [2]) | other results |
| --- | --- | --- | --- |
| NC[C@H]1O[C@H](O[C@H]2[C@H](O)[C@@H](O[C@H]3O[C@H](CO)[C@@H](O)[C@H](N)[C@H]3O)[C@H](N)C[C@@H]2N)[C@H](N)C[C@@H]1O [TOBRAMYCIN] | – | – | Activity [6]: Non-Toxic; Activity [7]: Non-Toxic; Activity [8]: Non-Toxic; Activity [9]: Non-Toxic; Activity [10]: Non-Toxic; Activity [11]: Non-Toxic; Activity [12]: Non-Toxic; Activity [13]: Non-Toxic; Activity [14]: Non-Toxic; Activity [15]: Non-Toxic; Activity (Pseudomonas aeruginosa [16]): Active; Activity [17]: Non-Toxic; Activity [18]: Non-Toxic; Activity (Pseudomonas aeruginosa [19]): 5.77% |
| O=C(CCCCCCOc1ccccc1)NO | > 256 µM | > 100 µM | – |
| O=C(CCCCCCOc1cc(=O)oc2ccc(F)cc12)NO | > 256 µM | 26.4 µM | – |
| COc1ccc2c(OCCCC(=O)NO)cc(=O)oc2c1 | > 256 µM | > 100 µM | – |
| CCCCCCCOc1cc(=O)oc2ccc(C)cc12 | > 256 µM | > 100 µM | – |
| O=C(CCCCOc1cc(=O)oc2cc(Cl)ccc12)NO | > 256 µM | 42.3 µM | – |
| O=C(CCCCCOc1cc(=O)oc2ccc(F)cc12)NO | > 256 µM | 58.6 µM | – |
| Cc1ccc2oc(=O)cc(OCCCCCC(=O)NO)c2c1 | > 256 µM | 12.3 µM | – |
| Cc1ccc2oc(=O)cc(NCCCCCCC(=O)NO)c2c1 | > 256 µM | > 100 µM | – |
| COc1ccc2c(OCCCCCCC(=O)NO)cc(=O)oc2c1 | > 256 µM | 4.74 µM | – |
| O=C(CCCOc1cc(=O)oc2cc(Cl)ccc12)NO | > 256 µM | 88.4 µM | – |
| O=C(CCCCOc1cc(=O)oc2ccc(F)cc12)NO | > 256 µM | 9.8 µM | – |
| O=C(CCCCCOc1cc(=O)oc2ccc(Cl)cc12)NO | > 256 µM | > 100 µM | – |
| Cc1ccc2c(OCCCCC(=O)NO)cc(=O)oc2c1 | > 256 µM | > 100 µM | – |
| O=C(CCCCCCOc1cc(=O)oc2ccccc12)NO | > 256 µM | 69.2 µM | – |
| Cc1ccc2c(OCCCCCCC(=O)NO)cc(=O)oc2c1 | > 256 µM | > 100 µM | – |
| O=C(CCCCCOc1cc(=O)oc2ccccc12)NO | > 256 µM | 69.7 µM | – |
| Cc1ccccc1OCCCCCCC(=O)NO | > 256 µM | > 100 µM | – |
| CC[C@H]1OC(=O)[C@H](C)[C@@H](O[C@H]2C[C@@](C)(OC)[C@@H](O)[C@H](C)O2)[C@H](C)[C@@H](O[C@@H]2O[C@H](C)C[C@H](N(C)C)[C@H]2O)[C@](C)(O)C[C@@H](C)CN(C)[C@H](C)[C@@H](O)[C@]1(C)O [AZITHROMYCIN] | – | 17.3 µM | – |
| O=C(CCCCCOc1cc(=O)oc2cc(Cl)ccc12)NO | > 256 µM | > 100 µM | – |
| O=C(CCCCCOc1cc(=O)oc2ccc(Br)cc12)NO | > 256 µM | > 100 µM | – |
| COc1ccc2c(OCCCCCC(=O)NO)cc(=O)oc2c1 | > 256 µM | 9.37 µM | – |
| O=C(CCCOc1cc(=O)oc2ccc(F)cc12)NO | > 256 µM | > 100 µM | – |
| CCCCCCCCOc1cc(=O)oc2ccc(C)cc12 | > 256 µM | > 100 µM | – |
| Cc1ccc(OCCCCCCC(=O)NO)cc1 | > 256 µM | > 100 µM | – |
| Cc1ccc2c(OCCCCCC(=O)NO)cc(=O)oc2c1 | > 256 µM | > 100 µM | – |
